The Kb is the affinity of an antagonist, worked out from how it opposes an agonist. Read a low Kb as higher antagonist affinity. For orientation: ED50 means the dose that gives a 50% effect, or the effect in half of the subjects.

Where a name gives a salt, the structure may show the parent alone.

From US5039691A, “5-(1-(imidazol)methyl)-3,3-disubstituted-2(3H)furanone derivatives” (Marion Merrell Dow Inc., priority 1990, dated 1991) come the findings set out here.

Common to all, as to parameters: species or system guinea pig
The target in assay [1] is T1, muscarinic cholinergic receptors on intestinal (ileal-longitudinal) smooth muscle (Cavia porcellus, UniProt H0W1Z3).
T1 construct: The longitudinal muscle, with the myenteric plexus attached, is separated from the underlying circular muscle; from tissue; host or cells: guinea pig ileum, longitudinal smooth muscle with myenteric plexus
Put plainly: Antimuscarinic test: antagonism of carbachol contraction of isolated ileum (Muscarinic Antagonist Activity, Ileum). The following applies: carbachol agonist, 37° C.

For assay [2], the target named is T2, muscarinic cholinergic receptors on bladder detrusor muscle (Cavia porcellus, UniProt H0W1Z3).
T2 construct: The peritoneal cavity is opened and the bladder is held lightly at its apex; from tissue; host or cells: guinea pig urinary bladder, detrusor strips without mucosa
Put plainly: Antimuscarinic test: antagonism of carbachol contraction of isolated bladder (Muscarinic Antagonist Activity, Bladder). As to conditions: bladder detrusor strips, carbachol agonist, 35° C. The protocol: ANTIMUSCARINIC TEST PROTOCOL
PREPARATION OF BLADDER FOR TESTING
Male albino guinea pigs are killed by decapitation or cervical dislocation. The peritoneal cavity is opened and the bladder is held lightly at its apex, stretched gently, and fat is lifted with fine forceps and dissected away in situ with blunt-tipped scissors as close to the surface of the bladder as possible. The tissue is placed in a latex-bottomed Petri dish that contains a modified Krebs solution (133 mM NaCl, 1.3 mM […], 16.3 mM NaHCO3, 4.7 mM KCl, 0.6 mM MgSO4.7H2 O, 2.5 mM CaCl2.2H2 O, 7.7 mM dextrose) and cut above the neck. The bladder is collapsed into a flat pouch, which is opened by two lateral incisions and unfolded to give a rectangular sheet of tissue approximately 2 cm long and 1 cm wide. The sheet is gently stretched and pinned to the bottom of the Petri dish. Blunt separation of the mucosa, which is visible as a looser superficial pink layer, is started at one end by carefully inserting the blades of micro dissecting scissors between the mucosa and muscle layers and using gentle spreading of the blades, together with steady traction with forceps to tease the two layers apart. Clean removal of the mucosa is usually possible without any fraying or tearing of the underlying muscle. The removal of the mucosa is considered essential for improving oxygen supply to the preparation and for providing better access on both sides of the thin muscle sheet for administered drugs (Ambache and Zar, J. Physiol. 210:671, 1970). The sheet is trimmed, if necessary, and cut longitudinally into four strips.
The strips are tied off with 5-0 silk suture and are then suspended in 10 mL water-jacketed glass tissue baths containing the Krebs solution maintained at 35° C. and aerated with 95% O2 /5% CO2. The suture connects each tissue to an isometric force-displacement transducer (Grass or Gould) coupled to a physiograph. Each preparation is suspended under a resting tension of 0.5 g and allowed to equilibrate for 36 minutes. During this period, the baths are emptied and filled every 12 minutes with 10 mL of warm Krebs buffer. At the end of this period, each muscle strip is conditioned by adding 10 μM carbachol to the baths. The drug remains in contact with each tissue for 1-2 minutes and then is removed by four rapid rinses of 10 mL of warm Krebs buffer. The preparations are allowed to recover for an additional 12 minutes before being used in experiments.
Carbachol is dissolved in saline to produce 2×10^-2 M stock concentrations. Serial dilutions (1:10) in saline or water are made from the stock solution. Appropriate volumes of these solutions are added cumulatively to the 10 mL tissue baths in order to obtain the desired bath concentrations.
PREPARATION OF TEST COMPOUNDS
Compounds that are soluble in water or saline are dissolved in these solvents to produce 2×10^-2 or 2×10^-3 M stock concentrations. Small amounts of IN HCl, NaOH, or 95% ethanol may be added for those agents that are not soluble in water or saline alone. Serial dilutions (1:10) in saline or water are made from the stock solution. Compounds that are insoluble in aqueous solvents are dissolved in dimethylsulfoxide (DMSO) to produce 4×10^-2 M stock solutions. Serial dilutions (1:10) in water are made from the stock solution. Other solvents may be used when appropriate and will be specifically described in the experimental procedure. Appropriate volumes are then added to the baths in order to obtain the desired bath concentrations.
Appropriate volumes of carbachol solutions are cumulatively added to the 10 mL tissue baths to increase the concentration of carbachol in the bath step-by-step without washing out after each single dose. With each concentration step, the tissue contracts isometrically. The next concentration is added only after the preceding contraction has reached a steady value. […]

The next assay relates to Male Guinea pigs. Put plainly: Primary in vivo bronchodilator assay for muscarinic antagonists (reversal of carbachol bronchoconstriction). The following applies: cumulative dose causing 50% reversal of carbachol bronchoconstriction; for ED50: Cavia porcellus, iv; for Bronchodilator Activity ED50: i.v. The protocol: PRIMARY IN VIVO BRONCHODILATOR ASSAY FOR MUSCARINIC ANTAGONISTS Male Guinea pigs were anesthetized by urethane. The trachea, carotid artery and jugular vein were cannulated. Animals were ventilated with room air at a constant rate and volume. Airway pressure was measured from a side port of the tracheal catheter, and blood pressure and heart rate were monitored as well. After a stable baseline period, an aerosol of carbachol was administered via an ultrasonic nebulizer. Once the bronchoconstrictor response plateaued, test compound was given in increasing i.v. doses to cause graded, cumulative reductions in airway pressure. If more than a 50% reversal of bronchoconstriction occurred, an ED50 value for bronchodilator potency was calculated using a probit analysis. The ED50 was defined as the cumulative i.v. dose that caused a 50% reversal of bronchoconstriction.

T1 sequence (H0W1Z3 1-590): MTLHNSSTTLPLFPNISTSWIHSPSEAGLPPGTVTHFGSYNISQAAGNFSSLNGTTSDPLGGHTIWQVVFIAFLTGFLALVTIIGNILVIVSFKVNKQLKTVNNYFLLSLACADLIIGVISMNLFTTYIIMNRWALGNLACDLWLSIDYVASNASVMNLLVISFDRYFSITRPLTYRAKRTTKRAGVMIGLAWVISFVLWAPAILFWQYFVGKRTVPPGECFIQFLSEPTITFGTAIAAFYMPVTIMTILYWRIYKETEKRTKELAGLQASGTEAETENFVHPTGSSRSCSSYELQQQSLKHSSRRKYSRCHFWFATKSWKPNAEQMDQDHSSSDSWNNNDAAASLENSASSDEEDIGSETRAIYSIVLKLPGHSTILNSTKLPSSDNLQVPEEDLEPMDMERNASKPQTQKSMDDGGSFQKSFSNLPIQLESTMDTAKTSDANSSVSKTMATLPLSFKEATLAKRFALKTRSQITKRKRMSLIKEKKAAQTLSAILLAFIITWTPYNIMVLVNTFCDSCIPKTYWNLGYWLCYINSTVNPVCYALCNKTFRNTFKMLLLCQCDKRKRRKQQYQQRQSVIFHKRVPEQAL
T2 sequence (H0W1Z3 1-590): as above

Regarding “5-[1-(3-Methylimidazol)methyl]-4,5-dihydro-5-methyl-3,3-diphenyl-2(3H)furanone hydrate”, the figures for the Kb in assay [1] and in assay [2] were 370 nM and 317 nM, respectively.
Regarding `Cc1cccn2cc[n+](CC3CC(c4ccccc4)(c4ccccc4)C(=O)O3)c12` (stereo not shown) [1-[(2,3,4,5-Tetrahydro-5-oxo-4,4-diphenyl-2-furanyl)methyl]-8-methylimidazo[1,2-a]pyridinium chloride hydrate], the antagonist equilibrium constant (Kb) in assay [1] came to 74 nM.
`O=C1OC(C[n+]2ccn3ccccc32)CC1(c1ccccc1)c1ccccc1` (stereo not shown) [1-[(2,3,4,5-Tetrahydro-5-oxo-4,4-diphenyl-2-furanyl)methyl]imidazo[1,2-a]pyridinium chloride hydrate]: in assay [1], the antagonist equilibrium constant (Kb) is 45 nM.
As to `Cc1n(CC2CC(c3ccccc3)(c3ccccc3)C(=O)O2)cc[n+]1C` (stereo not shown) [5-[1-(2,3-Dimethylimidazol)methyl]-4,5-dihydro-3,3-diphenyl-2(3H)furanone bromide], in assay [1], the Kb is 71 nM. The ED50 with Male Guinea pigs amounted to 0.85 mg/kg.
`O=C1OC(Cn2ccnc2Cc2ccccc2)CC1(c1ccccc1)c1ccccc1` (stereo not shown) [5-[1-(2-Benzylimidazol)methyl]-4,5-dihydro-3,3-diphenyl-2(3H)furanone hydrochloride]: in assay [1], the Kb was 223 nM.
Take `COC(=O)c1nccn1CC1CC(c2ccccc2)(c2ccccc2)C(=O)O1` (stereo not shown) [5-[1-(2-Carbomethoxyimidazol)methyl]-4,5-dihydro-3,3-diphenyl-2(3H)furanone hydrochloride]: the antagonist dissociation constant (Kb) in assay [1] was found to be 435 nM.
Take `CCOCc1nccn1CC1CC(c2ccccc2)(c2ccccc2)C(=O)O1` (stereo not shown) [5-[1-(2-Ethoxymethylimidazol)methyl]-4,5-dihydro-3,3-diphenyl-2(3H)furanone]: in assay [1], the antagonist equilibrium constant (Kb) is greater than 1000 nM. In addition, the ED50 in the assay on Male Guinea pigs is greater than 10 mg/kg.
Molecule `CCc1nc(C)cn1CC1CC(c2ccccc2)(c2ccccc2)C(=O)O1` (stereo not shown) [5-[1-(2-Ethyl-4-methylimidazol-methyl]-4,5-dihydro-3,3-diphenyl-2(3H)furanone hydrobromide] returned a Kb in assay [1] of 86 nM.
In assay [1], `CCc1nccn1CC1=CC(c2ccccc2)(c2ccccc2)C(=O)O1` [5-[1-(2-Ethylimidazol)methyl]-3,3-diphenyl-2(3H)furanone] displayed a Kb of 8.2 nM. Further, the ED50 in the assay with Male Guinea pigs was determined as 1.9 mg/kg.
Take `CC(C)Cc1nccn1CC1CC(c2ccccc2)(c2ccccc2)C(=O)O1` (stereo not shown) [5-[1-(2-Isobutylimidazol)methyl]-4,5-dihydro-3,3-diphenyl-2(3H)furanone hydrochloride]: the Kb in assay [1] came to 489 nM. For the same molecule, the ED50 in the assay with Male Guinea pigs is greater than 10 mg/kg.
Regarding `CC(C)c1n(CC2CC(c3ccccc3)(c3ccccc3)C(=O)O2)cc[n+]1C` (stereo not shown) [5-[1-(2-Isopropyl-3-methylimidazol)methyl]-4,5-dihydro-3,3-d] [5-[1-(2-Isopropyl-3-methylimidazol)methyl]-4,5-dihydro-3,3-diphenyl-2(3H)furanone iodide], the “Bronchodilator Activity ED50” value in the assay with Male Guinea pigs was determined as 0.06 mg/kg.
On the same count and under the same terms, then `CC(C)c1n(CC2CC(c3ccccc3)(c3ccccc3)C(=O)O2)cc[n+]1C` (stereo not shown) [5-[1-(2-Isopropyl-3-methylimidazol-methyl]-4,5-dihydro-3,3-d] [5-[1-(2-Isopropyl-3-methylimidazol-methyl]-4,5-dihydro-3,3-diphenyl-2(3H)furanone bromide], with 0.007 mg/kg.
In turn, `COCCc1n(CC2CC(c3ccccc3)(c3ccccc3)C(=O)O2)cc[n+]1C` (stereo not shown) [5-[1-(2-Methoxyethyl-3-methylimidazol)methyl]-4,5-dihydro-3,3-diphenyl-2(3H)furanone iodide hydrate] displayed a Kb in assay [1] of 39 nM.
In the case of `COCCc1nccn1CC1CC(c2ccccc2)(c2ccccc2)C(=O)O1` (stereo not shown) [5-[1-(2-Methoxyethylimidazol)methyl]-4,5-dihydro-3,3-diphenyl-2(3H)furanone hydrochloride], in assay [1], the Kb was found to be 638 nM. Besides, the ED50 in the assay with Male Guinea pigs is greater than 10 mg/kg.
`COCc1n(CC2CC(c3ccccc3)(c3ccccc3)C(=O)O2)cc[n+]1C` (stereo not shown) [5-[1-(2-Methoxymethyl-3-methylimidazol)methyl]-4,5-dihydro-3,3-diphenyl-2(3H)furanone iodide] returned a Kb in assay [1] of 40 nM.
Same read-out and setting: the figure for `Cc1n(CC2CC(c3ccccc3)(c3ccccc3)C(=O)O2)cc[n+]1Cc1ccccc1` (stereo not shown) [5-[1-(2-Methyl-3-benzylimidazol)methyl]-4,5-dihydro-3,3-diphenyl-2(3H)furanone bromide] is 544 nM.
Take `O=C1OC(Cn2ccnc2-c2ccccc2)CC1(c1ccccc1)c1ccccc1` (stereo not shown) [5-[1-(2-Phenylimidazol)methyl]-4,5-dihydro-3,3-diphenyl-2(3H)furanone]: the Kb in assay [1] is 5920 nM. Further, the ED50 in the assay on Male Guinea pigs was greater than 6 mg/kg.
For `CCCCc1nccn1CC1CC(c2ccccc2)(c2ccccc2)C(=O)O1` (stereo not shown) [5-[1-(2-n-Butylimidazol)methyl]-4,5-dihydro-3,3-diphenyl-2(3H)furanone] the same measures were 113 nM and greater than 10 mg/kg.
The corresponding values for `CC(C)(C)c1nccn1CC1CC(c2ccccc2)(c2ccccc2)C(=O)O1` (stereo not shown) [5-[1-(2-tert-Butylimidazol)methyl]-4,5-dihydro-3,3-diphenyl-2(3H)furanone hydrochloride] are 3.3 nM and 0.14 mg/kg.
`CCn1cc[n+](CC2CC(c3ccccc3)(c3ccccc3)C(=O)O2)c1` (stereo not shown) [5-[1-(Ethylimidazol)methyl]-4,5-dihydro-3,3-diphenyl-2(3H)furanone bromide]: in assay [1], the Kb came out at 229 nM.
In turn, `COCc1nccn1CC1CC(c2ccccc2)(c2ccccc2)C(=O)O1` (stereo not shown) [5-[1-[2-(2-Methoxymethyl)imidazol]methyl]-4,5-dihydro-3,3-diphenyl-2(3H)furanone hydrochloride hydrate] gave a Kb in assay [1] of 67 nM. The ED50 in the assay with Male Guinea pigs was greater than 10 mg/kg.
For `O=C1OC(C[N+]2=C3CCCCCN3CCC2)CC1(c1ccccc1)c1ccccc1` (stereo not shown) [5-[(1,8-Diazabicyclo[5.4.0]undec-7-en-8-yl)methyl]-4,5-dihydro-3,3-diphenyl-2(3H)furanone chloride hydrate] the same measures were greater than 1000 nM and greater than 10 mg/kg.
`O=C1OC(Cn2cnc3ccccc32)CC1(c1ccccc1)c1ccccc1` (stereo not shown) [5-[(1-Benzimidazol)methyl]-4,5-dihydro-3,3-diphenyl-2(3H)furanone]: the Kb in assay [1] amounted to 1280 nM.
The molecule `O=C1OC(Cn2ccnc2)CC1(c1ccccc1)c1ccccc1` (stereo not shown) [5-[(1-Imidazol)methyl]-4,5-dihydro-3,3-diphenyl-2(3H)furanone] showed an antagonist equilibrium constant (Kb) in assay [1] of 373 nM.
`O.O=C1OC(C[n+]2ccn3c2CCC3)CC1(c1ccccc1)c1ccccc1.[Cl-]` (stereo not shown) [6,7-Dihydro-1-[(2,3,4,5-tetrahydro-5-oxo-4,4-diphenyl-2-furanyl)methyl]-5H-pyrrolo[1,2-a]imidazolium chloride hydrate] displayed a Kb in assay [1] of 33 nM. The ED50 in the assay with Male Guinea pigs turned out to be 0.7 mg/kg.
